Reference: US20230096766A1, “AMINO ACID HAVING FUNCTIONAL GROUP CAPABLE OF INTERMOLECULAR HYDROGEN BONDING, PEPTIDE COMPOUND CONTAINING SAME AND METHOD FOR PRODUCTION THEREOF” (Chugai Seiyaku Kabushiki Kaisha, priority 2018, published 2023)
*1 amine or outer side, *2 acyl side, *3 side chain or, on linkers, in order; H or OH if unused. Where a SMILES comes first, the peptide text is derived from it. Bridges are numbered along the chain shown (N, C = ends). [ ]: non-standard residue; d: D form. The star is where a group is joined. ξ: configuration not given here. hPhe(3-OMe,4-CONHMe) = CNC(=O)c1ccc(CC[C@H](N)C(=O)O)cc1OC; Phe(3-CONHMe,4-OMe) = CNC(=O)c1cc(C[C@H](N)C(=O)O)ccc1OC; X17 = CC(C)C[C@@H](C(=O)[*:2])C(C)C(=O)CCCN(C)[*:1]; NMePhe(3-Cl) = CN[C@@H](Cc1cccc(Cl)c1)C(=O)O; ξGln(SO2Me) = CS(=O)(=O)NC(=O)CCC(N)C(=O)O; NMehPhe = CN[C@@H](CCc1ccccc1)C(=O)O; NMeF = CN[C@@H](Cc1ccccc1)C(=O)O; NMeGABA = CN(CCCC(=O)[*:2])[*:1]; NMeI = CC[C@H](C)[C@H](NC)C(=O)O; CH2CONHtBu = CC(C)(C)NC(=O)C*; NMeL = CN[C@@H](CC(C)C)C(=O)O; NMeV = CN[C@H](C(=O)O)C(C)C; NMeA = CN[C@@H](C)C(=O)O; Piperidide = C1CCN(*)CC1; dNMeA = CN[C@H](C)C(=O)O; CH2CMe2OH = CC(C)(O)C*; NBuGly = CCCCNCC(=O)O; NPrGly = CCCNCC(=O)O; Ethyl(2-OH) = OCC*; Sar = CNCC(=O)O; tBu = CC(C)(C)*

Assay: in vitro
Details: human

Molecule CC(C)C[C@H]1C(=O)N[C@@H](C(C)C)C(=O)N(C)[C@@H](Cc2ccccc2)C(=O)N(C)[C@@H](Cc2ccccc2)C(=O)N[C@@H](COC(C)(C)C)C(=O)N(C)[C@@H](CC(C)C)C(=O)N[C@@H]([C@@H](C)O)C(=O)N(C)[C@@H](Cc2ccccc2)C(=O)N(C)[C@@H](CC(C)C)C(=O)N[C@H](C(=O)N2CCCCC2)CC(=O)N(C)CCCC(=O)N1C [pd216] ([NMeGABA][NMeL]V[NMeF][NMeF]S(tBu)[NMeL]T[NMeF][NMeL]D-Piperidide; lactam N-11) has a Papp (Caco-2, Caco-2 (cm/sec)) of 1.2 ×10⁻⁶ cm/s.

CC(C)C[C@@H]1NC(=O)[C@H](CCc2ccccc2)N(C)C(=O)[C@@H](C(C)C)NC(=O)C[C@@H](C(=O)N2CCCCC2)NC(=O)[C@H](CC(C)C)N(C)C(=O)[C@H](Cc2cccc(Cl)c2)N(C)C(=O)[C@H](COCCO)NC(=O)[C@H](CC(C)C)N(C)C(=O)CN(C)C(=O)[C@H]([C@@H](C)O)NC(=O)[C@H](CC(C)C)N(C)C1=O [Compound A02] ([dV][NMehPhe]L[NMeL]T[Sar][NMeL]S(Ethyl(2-OH))[NMePhe(3-Cl)][NMeL]D-Piperidide; lactam N-11) showed a Papp (Caco-2, Caco-2 (cm/sec)) of 0.45 ×10⁻⁶ cm/s.

Molecule CC(C)C[C@@H]1NC(=O)[C@H](CC(C)C)C(C)C(=O)CCCN(C)C(=O)C[C@@H](C(=O)N2CCCCC2)NC(=O)[C@H](CC(C)C)N(C)C(=O)[C@H](CC(C)C)N(C)C(=O)[C@H](CC(C)C)NC(=O)[C@H](CC(C)C)N(C)C(=O)C(CCC(=O)NS(C)(=O)=O)NC(=O)[C@H](Cc2ccccc2)N(C)C(=O)[C@H](Cc2ccccc2)N(C)C1=O (stereo partly drawn) [pd68] ([X17]L[NMeF][NMeF][ξGln(SO2Me)][NMeL]L[NMeL][NMeL]D-Piperidide; lactam N-10) has a Papp (Caco-2, Caco-2) of 0.1 ×10⁻⁶ cm/s.

CC(C)C[C@@H]1NC(=O)[C@H](C)N(C)C(=O)C[C@@H](C(=O)N2CCCCC2)NC(=O)[C@H](CC(C)C)N(C)C(=O)CN(C)C(=O)[C@H]([C@@H](C)O)NC(=O)[C@H](Cc2ccccc2)N(C)C(=O)[C@H](Cc2ccccc2)N(C)C(=O)[C@H](CC(C)C)NC(=O)[C@H](Cc2ccccc2)N(C)C(=O)[C@H](CC(C)C)N(C)C1=O [pd204] ([NMeA]L[NMeL][NMeF]L[NMeF][NMeF]T[Sar][NMeL]D-Piperidide; lactam N-11) showed a Papp (Caco-2, Caco-2 (cm/sec)) of 2 ×10⁻⁶ cm/s.

CCCN1CC(=O)N(C)[C@@H](CC(C)C)C(=O)N[C@H](C(=O)N2CCCCC2)CC(=O)N(C)[C@@H](C)C(=O)N[C@@H](CC(C)C)C(=O)N(C)[C@@H](CC(C)C)C(=O)N(C)[C@@H](Cc2ccccc2)C(=O)N[C@@H](COCC(C)(C)O)C(=O)N(C)[C@@H](Cc2ccccc2)C(=O)N(C)[C@@H]([C@@H](C)CC)C(=O)N[C@@H]([C@@H](C)O)C1=O [AP06] ([NMeA]L[NMeL][NMeF]S(CH2CMe2OH)[NMeF][NMeI]T[NPrGly][NMeL]D-Piperidide; lactam N-11) showed a Papp (Caco-2, Caco-2 (cm/sec)) of 0.033 ×10⁻⁶ cm/s.

In the case of CNC(=O)c1ccc(CC[C@@H]2NC(=O)[C@H](CC(C)C)N(C)C(=O)[C@H]([C@@H](C)O)NC(=O)[C@H](CC(C)C)N(C)C(=O)[C@H](CC(C)C)N(C)C(=O)[C@@H](C)N(C)C(=O)C[C@@H](C(=O)N3CCCCC3)NC(=O)[C@H](CC(C)C)N(C)C2=O)cc1OC [AP262] ([dNMeA][NMeL][NMeL]T[NMeL][hPhe(3-OMe,4-CONHMe)][NMeL]D-Piperidide; lactam N-8), the Papp (Caco-2, Caco-2 (cm/sec)) is reported as 0.17 ×10⁻⁶ cm/s.

CC(C)C[C@@H]1NC(=O)[C@H](Cc2cccc(Cl)c2)N(C)C(=O)[C@H](CC(C)C)N(C)C(=O)[C@H](COCCO)NC(=O)[C@H](C(C)C)N(C)C(=O)C[C@@H](C(=O)N2CCCCC2)NC(=O)[C@H](CC(C)C)N(C)C(=O)CN(C)C(=O)[C@H]([C@@H](C)O)NC(=O)[C@H](CC(C)C)N(C)C(=O)[C@H](CCc2ccccc2)N(C)C1=O [Compound A09] ([NMeV]S(Ethyl(2-OH))[NMeL][NMePhe(3-Cl)]L[NMehPhe][NMeL]T[Sar][NMeL]D-Piperidide; lactam N-11) showed a Papp (Caco-2, Caco-2 (cm/sec)) of 0.72 ×10⁻⁶ cm/s.

Work on CCCCN1CC(=O)N(C)[C@@H](CC(C)C)C(=O)N(C)[C@@H](CC(C)C)C(=O)N[C@@H](COC(C)(C)C)C(=O)N(C)[C@@H](CC(C)C)C(=O)N[C@H](C(=O)N2CCCCC2)CC(=O)N(C)CC(=O)N(C)[C@@H](Cc2cccc(Cl)c2)C(=O)N[C@@H](Cc2ccc(OC)c(C(=O)NC)c2)C(=O)N(C)[C@@H](CC(C)C)C(=O)N[C@@H]([C@@H](C)O)C1=O [AP41] ([Sar][NMePhe(3-Cl)][Phe(3-CONHMe,4-OMe)][NMeL]T[NBuGly][NMeL][NMeL]S(tBu)[NMeL]D-Piperidide; lactam N-11) yielded a Papp (Caco-2, Caco-2 (cm/sec)) of 0.45 ×10⁻⁶ cm/s.

Work on CC(C)C[C@@H]1NC(=O)[C@H](CC(C)C)N(C)C(=O)[C@H](CCc2ccccc2)N(C)C(=O)[C@H](COCC(=O)NC(C)(C)C)NC(=O)[C@H](CC(C)C)N(C)C(=O)C[C@@H](C(=O)N2CCCCC2)NC(=O)[C@H](C)N(C)C(=O)CN(C)C(=O)[C@H]([C@@H](C)O)NC(=O)[C@H](CCc2ccccc2)N(C)C(=O)[C@H](CC(C)C)N(C)C1=O [AP16] ([NMeL]S(CH2CONHtBu)[NMehPhe][NMeL]L[NMeL][NMehPhe]T[Sar][NMeA]D-Piperidide; lactam N-11) yielded a Papp (Caco-2, Caco-2 (cm/sec)) of 0.27 ×10⁻⁶ cm/s.
